Measured values published in paper PMC8224972, “Thiazide and other Cl-benzenesulfonamide-bearing clinical drug affinities for human carbonic anhydrases” (PLoS ONE, 2021).
Where two headings read alike, the source gives them in different places.

Legend:
CA III [1] = biological target: T1, CA III (Homo sapiens, UniProt P07451); assay: Fluorescence-based thermal shift assay (FTSA)
Description: (§1) This assay quantifies protein melting temperatures (Tm) at various concentrations of the added compound. Protein unfolding is monitored by detecting the fluorescence of the solvatochromic dye 8-anilino-1-naphtalensulfonate (ANS), whose fluorescence increases upon protein unfolding [15–17]. Dependence of the protein Tm on ligand concentration was used to determine the dissociation constant Kd. In this study, FTSA samples contained 5–20 μM protein, 50 μM ANS, 0–300 μM compound in 50 mM sodium phosphate or 25 mM Hepes buffer containing 50 mM NaCl, pH 7.5, and 2% (v/v) DMSO. Experiments were performed in Corbett Rotor-Gene 6000 instrument. […] The heating rate of 1°/min was applied.
(§2) The experiments were repeated at least twice, and averages are listed.

CA XII = CA XII (Homo sapiens, UniProt O43570); assay: Fluorescence-based thermal shift assay (FTSA)
Description: as §1, §2

CA II [2] = biological target: T2, CA II (Homo sapiens, UniProt P00918); assay: Fluorescence-based thermal shift assay (FTSA); settings: for Binding to CA II in words: FTSA
Description: as §1, §2

CA IV [3] = biological target: T3, CA IV (Homo sapiens, UniProt P22748); assay: Fluorescence-based thermal shift assay (FTSA)
Description: as §1, §2

CA VI = CA VI (Homo sapiens, UniProt P23280); assay: Fluorescence-based thermal shift assay (FTSA)
Description: as §1, §2

CA XIV = CA XIV (Homo sapiens, UniProt Q9ULX7); assay: Fluorescence-based thermal shift assay (FTSA)
Description: as §1, §2

CA I = CA I (Homo sapiens, UniProt P00915); assay: Fluorescence-based thermal shift assay (FTSA)
Description: as §1, §2

CA II [4] = biological target: T2, CA II; set-up: made in house; settings: literature value; read-out: Literature Ki or Kd, CA II; cited from earlier work
CA VB = CA VB (Homo sapiens, UniProt Q9Y2D0); assay: Fluorescence-based thermal shift assay (FTSA)
Description: as §1, §2

CA VII = CA VII (Homo sapiens, UniProt P43166); assay: Fluorescence-based thermal shift assay (FTSA)
Description: as §1, §2

CA IX = CA IX (Homo sapiens, UniProt Q16790); assay: Fluorescence-based thermal shift assay (FTSA)
Description: as §1, §2

CA XIII [5] = biological target: CA XIII (Homo sapiens, UniProt Q8N1Q1); assay: Fluorescence-based thermal shift assay (FTSA)
Description: as §1, §2

CA VA = CA VA (Homo sapiens, UniProt P35218); assay: Fluorescence-based thermal shift assay (FTSA)
Description: as §1, §2

CA IV [6] = biological target: T3, CA IV; assay: Stopped-flow CO2 hydration activity assay (SFA); format: biochemical; set-up: made in house; settings: 25°C, pH 7.5, 25 nM CA IV, Morrison equation; read-out: Affinity (Kd) by SFA, CA IV
Description: (§3) The inhibition of CA enzymatic activity by the compounds was measured by the stopped-flow CO2 hydration enzymatic activity assay (SFA) [20]. […] The IC50 measured by SFA were compared to the affinities obtained by FTSA.
(§4) The CO2 spontaneously hydrates in an aqueous solution and the pH decreases. […] The saturated CO2 solution was prepared by bubbling the CO2 gas in MilliQ water at 25°C for 1 h. Experiments were performed at 25°C using 25 mM Hepes buffer containing 50 mM NaCl, pH 7.5, 0–100 μM inhibitor and 0.4% DMSO. […] The rates of CO2 hydration were determined from the slopes of raw curves of initial absorbance change. To determine the fraction of inhibited enzyme, the spontaneous CO2 hydration rate was used as a zero, while the CA-catalyzed reaction rate in the absence of the compound—as a maximum value. Each experiment consisted of 17 compound concentrations, 16 prepared by serial ligand dilution and a last one without the compound. […] The dissociation constants Kd were determined using the Morrison equation as described by Copeland [21].

CA II [7] = biological target: T2, CA II; assay: Stopped-flow CO2 hydration activity assay (SFA); format: biochemical; set-up: made in house; settings: 25°C, pH 7.5, 20 nM CA II, Morrison equation; read-out: Affinity (Kd) by SFA, CA II
Description: as §3, §4

CA = biological target: CA; set-up: method as in doi:10.1016/S0223-5234(97)89083-6; settings: CA isoform not identified; cited from earlier work
CA II [8] = biological target: T2, CA II; assay: Isothermal titration calorimetry (ITC)
CA XIII [9] = settings: murine protein, literature value; read-out: Literature Ki or Kd, CA XIII; cited from earlier work
human CA isoforms = assay: FTSA, summary over several CA isoforms; format: binding
Description: as §1, §2

[10] = tested on: TSC (thiazide sensitive co-transporter); set-up: method as in PMID 10894798; settings: in the presence of 2 mM Cl-; cited from earlier work
CA III [11] = biological target: T1, CA III; set-up: made in house; settings: literature value; read-out: Literature Ki or Kd, CA III; cited from earlier work

Sequence of CA VI (P23280 18-308): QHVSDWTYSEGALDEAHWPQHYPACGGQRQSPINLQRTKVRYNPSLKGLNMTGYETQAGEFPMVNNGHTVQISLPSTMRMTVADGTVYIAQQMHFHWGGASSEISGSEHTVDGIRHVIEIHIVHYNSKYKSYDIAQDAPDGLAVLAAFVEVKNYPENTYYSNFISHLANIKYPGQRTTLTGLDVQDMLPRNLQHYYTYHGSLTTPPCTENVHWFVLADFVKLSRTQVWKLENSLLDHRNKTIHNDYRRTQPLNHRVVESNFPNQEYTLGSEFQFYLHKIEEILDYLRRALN
Sequence of CA VB (Q9Y2D0 34-317): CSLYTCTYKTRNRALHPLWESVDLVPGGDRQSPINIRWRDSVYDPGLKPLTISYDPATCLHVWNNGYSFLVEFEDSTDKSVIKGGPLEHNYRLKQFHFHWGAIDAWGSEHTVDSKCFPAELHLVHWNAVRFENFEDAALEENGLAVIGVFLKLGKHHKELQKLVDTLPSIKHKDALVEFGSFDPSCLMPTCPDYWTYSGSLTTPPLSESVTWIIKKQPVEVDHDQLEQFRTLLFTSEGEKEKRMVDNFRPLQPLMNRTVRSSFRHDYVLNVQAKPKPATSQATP
T1 sequence (P07451 whole entry): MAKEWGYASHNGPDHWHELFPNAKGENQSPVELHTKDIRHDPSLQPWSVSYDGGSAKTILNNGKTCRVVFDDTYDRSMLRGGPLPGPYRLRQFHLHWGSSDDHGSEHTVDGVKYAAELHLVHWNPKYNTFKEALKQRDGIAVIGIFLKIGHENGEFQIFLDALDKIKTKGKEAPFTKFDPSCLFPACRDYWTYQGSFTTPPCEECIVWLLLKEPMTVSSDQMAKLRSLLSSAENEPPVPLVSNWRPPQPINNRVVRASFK
Sequence of CA I (P00915 whole entry): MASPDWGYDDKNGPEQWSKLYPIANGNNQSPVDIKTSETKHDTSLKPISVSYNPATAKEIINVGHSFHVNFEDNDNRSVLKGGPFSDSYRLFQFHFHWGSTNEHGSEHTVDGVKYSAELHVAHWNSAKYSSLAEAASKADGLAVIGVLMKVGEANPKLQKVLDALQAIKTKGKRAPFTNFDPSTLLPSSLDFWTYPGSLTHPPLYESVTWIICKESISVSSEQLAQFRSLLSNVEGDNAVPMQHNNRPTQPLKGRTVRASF
Sequence of CA XII (O43570 25-354): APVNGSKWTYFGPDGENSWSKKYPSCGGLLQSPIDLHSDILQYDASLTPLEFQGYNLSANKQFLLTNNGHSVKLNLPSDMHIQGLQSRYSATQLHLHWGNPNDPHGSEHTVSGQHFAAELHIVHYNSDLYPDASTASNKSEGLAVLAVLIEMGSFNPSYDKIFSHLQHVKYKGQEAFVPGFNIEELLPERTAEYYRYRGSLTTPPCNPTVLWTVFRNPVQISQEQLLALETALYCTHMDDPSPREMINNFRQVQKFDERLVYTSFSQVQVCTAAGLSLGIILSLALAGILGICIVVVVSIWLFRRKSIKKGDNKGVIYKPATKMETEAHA
T3 sequence (P22748 19-312): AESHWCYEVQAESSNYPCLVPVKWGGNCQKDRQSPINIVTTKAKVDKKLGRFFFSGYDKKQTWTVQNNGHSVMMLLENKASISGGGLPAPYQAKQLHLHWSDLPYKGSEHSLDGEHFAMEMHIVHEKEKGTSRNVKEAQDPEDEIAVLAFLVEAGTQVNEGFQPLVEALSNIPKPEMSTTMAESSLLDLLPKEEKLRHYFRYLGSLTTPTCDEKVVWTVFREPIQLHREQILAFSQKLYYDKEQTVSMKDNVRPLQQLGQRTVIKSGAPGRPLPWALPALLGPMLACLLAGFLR
Sequence of CA VA (P35218 39-305): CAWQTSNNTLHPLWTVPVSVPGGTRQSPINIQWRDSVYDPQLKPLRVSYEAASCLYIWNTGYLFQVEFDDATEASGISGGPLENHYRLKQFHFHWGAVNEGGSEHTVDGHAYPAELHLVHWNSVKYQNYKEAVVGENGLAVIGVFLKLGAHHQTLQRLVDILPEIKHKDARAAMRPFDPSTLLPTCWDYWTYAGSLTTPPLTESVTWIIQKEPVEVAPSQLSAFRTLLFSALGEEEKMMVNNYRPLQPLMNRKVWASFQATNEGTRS
Sequence of CA XIV (Q9ULX7 16-337): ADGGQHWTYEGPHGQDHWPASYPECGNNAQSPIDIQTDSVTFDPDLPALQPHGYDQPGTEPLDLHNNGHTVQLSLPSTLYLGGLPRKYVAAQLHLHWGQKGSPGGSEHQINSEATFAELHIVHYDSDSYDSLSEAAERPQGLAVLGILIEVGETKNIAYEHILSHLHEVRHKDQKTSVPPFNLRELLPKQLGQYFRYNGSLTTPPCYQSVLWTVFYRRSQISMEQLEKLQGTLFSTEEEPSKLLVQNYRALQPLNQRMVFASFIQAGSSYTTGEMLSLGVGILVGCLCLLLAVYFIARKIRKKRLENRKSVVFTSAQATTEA
Sequence of CA XIII (Homo sapiens, UniProt Q8N1Q1) (Q8N1Q1 whole entry): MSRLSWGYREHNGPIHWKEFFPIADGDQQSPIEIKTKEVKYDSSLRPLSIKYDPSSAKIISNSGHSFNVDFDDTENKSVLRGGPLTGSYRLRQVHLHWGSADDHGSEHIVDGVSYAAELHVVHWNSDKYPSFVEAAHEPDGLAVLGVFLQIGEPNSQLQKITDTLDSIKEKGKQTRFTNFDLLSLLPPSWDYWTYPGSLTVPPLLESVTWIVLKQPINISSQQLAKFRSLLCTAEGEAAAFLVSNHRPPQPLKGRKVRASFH
Sequence of CA VII (P43166 whole entry): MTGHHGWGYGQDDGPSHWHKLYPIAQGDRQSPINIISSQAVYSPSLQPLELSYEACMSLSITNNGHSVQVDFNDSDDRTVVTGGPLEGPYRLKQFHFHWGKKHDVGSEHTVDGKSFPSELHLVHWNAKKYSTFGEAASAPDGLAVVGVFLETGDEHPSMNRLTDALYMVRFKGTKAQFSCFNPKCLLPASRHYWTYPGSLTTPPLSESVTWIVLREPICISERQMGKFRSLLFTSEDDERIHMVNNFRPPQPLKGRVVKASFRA

Row | SMILES | Kd (CA III [1]) | Kd (CA XII) | Kd (CA II [2]) | Kd (CA IV [3]) | Kd (CA VI) | Kd (CA XIV) | Kd (CA I) | Kd (CA II [4]) | Kd (CA VB) | Kd (CA VII) | Kd (CA IX) | Kd (CA XIII [5]) | Kd (CA VA) | Ki (CA) | IC50 [10] | further results
1 | NS(=O)(=O)c1ccccc1Cl [Compound 1, 2-chloro-benzenesulfonamide] | > 200000 nM | 420 nM | 560 nM | 1200 nM | 2600 nM | 430 nM | 270 nM | 1130 nM | 470 nM | 400 nM | 860 nM | 570 nM | 320 nM |  |  | 
2 | NS(=O)(=O)c1cc(Cl)c(Cl)c(S(N)(=O)=O)c1 [Compound 2, Dichlorphenamide] | 550 nM |  |  |  |  | 0.92 nM |  |  | 0.25 nM |  |  | 4.5 nM | 25 nM |  |  | 
3 | NS(=O)(=O)c1cc2c(cc1Cl)N=CNS2(=O)=O [Compound 3, chlorothiazide] | 15000 nM | 180 nM | 370 nM | 310 nM | 620 nM | 250 nM |  | 372 nM | 48 nM | 70 nM | 130 nM | 39 nM | 830 nM | 460 nM |  | Kd (CA IV [6]): 300 nM; Kd (CA II [7]): 310 nM; Kd (CA II [8]): 250 nM
4 | NS(=O)(=O)c1cc2c(cc1Cl)NCNS2(=O)=O [Compound 4, hydrochlorothiazide] | 200000 nM | 570 nM |  | 1600 nM | 830 nM | 620 nM |  |  | 200 nM | 870 nM | 350 nM | 530 nM | 2000 nM | 2350 nM | 7000 nM | Ki (CA XIII [9]): 3880 nM; Kd (human CA isoforms; FTSA, most CA isoforms, read-out: Kd for most CA isoforms): ~1000 nM
5 | NS(=O)(=O)c1cc2c(cc1Cl)NC(C(Cl)Cl)NS2(=O)=O (stereo not shown) [Compound 5, trichloromethiazide] |  |  |  |  |  |  |  |  |  |  |  |  |  |  | 500 nM | 
6 | NS(=O)(=O)c1cc2c(cc1Cl)NC(C1CC3C=CC1C3)NS2(=O)=O (stereo not shown) [Compound 6, cyclothiazide] |  | 170 nM | 1200 nM | 270 nM | 430 nM | 360 nM | 940 nM |  | 140 nM | 500 nM | 150 nM | 430 nM | 1100 nM |  |  | 
7 | CN1C(CSCC(F)(F)F)Nc2cc(Cl)c(S(N)(=O)=O)cc2S1(=O)=O (stereo not shown) [Compound 7, polythiazide] | > 200000 nM | 1600 nM |  | 330 nM | 580 nM | 230 nM | 250 nM |  | 280 nM | 100 nM | 100 nM | 190 nM | 5000 nM |  | 20 nM | 
8 | NS(=O)(=O)c1cc2c(cc1Cl)N=C(CSCc1ccccc1)NS2(=O)=O [Compound 8, benzthiazide] | 4500 nM | 18 nM | 6.4 nM | 43 nM | 500 nM | 36 nM | 4300 nM | 16.7 nM | 6.6 nM | 15 nM | 26 nM | 0.64 nM | 90 nM | 16 nM |  | Binding to CA II in words (CA II [2]): potent ones; Increase in affinity of 8 relative to 4 (human CA isoforms; CA II and CA XIII, Kd ratio): up to 1000 fold
9 | C=CCSCC1Nc2cc(Cl)c(S(N)(=O)=O)cc2S(=O)(=O)N1 (stereo not shown) [Compound 9, althiazide] | 51000 nM | 120 nM | 790 nM | 330 nM | 490 nM | 51 nM | 1600 nM |  | 61 nM | 250 nM | 120 nM | 150 nM | 1500 nM |  |  | 
10 | NS(=O)(=O)c1cc2c(cc1C(F)(F)F)NCNS2(=O)=O [Compound 10, hydroflumethiazide] | > 200000 nM | 31000 nM | 17000 nM | 24000 nM | 29000 nM | 3600 nM | 50000 nM |  | 910 nM | 17000 nM | 1600 nM | 470 nM | 40000 nM |  |  | Binding to CA II in words (CA II [2]): weak binders; Ki (CA XIII [9]): 15400 nM; Ki (CA III [11]): 870000 nM
